# Measurements as given in patent US9359330B2, “Substituted piperidines as sodium channel blockers” (Purdue Pharma L.P., priority 2013, dated 2016).
# Target: hNav1.7 (Homo sapiens (Human), UniProt Q15858)
# Test: Electrophysiology (EP) whole-cell patch clamp assay, hNav1.7 expressing HEK-293 cells
# Assay type: cell-based
# Settings: affinity for inactivated channels; read-out: Nav1.7 Activity EP assay Ki
# hNav1.7, sequence (Q15858 other isoform, or with tags, fused parts or gaps): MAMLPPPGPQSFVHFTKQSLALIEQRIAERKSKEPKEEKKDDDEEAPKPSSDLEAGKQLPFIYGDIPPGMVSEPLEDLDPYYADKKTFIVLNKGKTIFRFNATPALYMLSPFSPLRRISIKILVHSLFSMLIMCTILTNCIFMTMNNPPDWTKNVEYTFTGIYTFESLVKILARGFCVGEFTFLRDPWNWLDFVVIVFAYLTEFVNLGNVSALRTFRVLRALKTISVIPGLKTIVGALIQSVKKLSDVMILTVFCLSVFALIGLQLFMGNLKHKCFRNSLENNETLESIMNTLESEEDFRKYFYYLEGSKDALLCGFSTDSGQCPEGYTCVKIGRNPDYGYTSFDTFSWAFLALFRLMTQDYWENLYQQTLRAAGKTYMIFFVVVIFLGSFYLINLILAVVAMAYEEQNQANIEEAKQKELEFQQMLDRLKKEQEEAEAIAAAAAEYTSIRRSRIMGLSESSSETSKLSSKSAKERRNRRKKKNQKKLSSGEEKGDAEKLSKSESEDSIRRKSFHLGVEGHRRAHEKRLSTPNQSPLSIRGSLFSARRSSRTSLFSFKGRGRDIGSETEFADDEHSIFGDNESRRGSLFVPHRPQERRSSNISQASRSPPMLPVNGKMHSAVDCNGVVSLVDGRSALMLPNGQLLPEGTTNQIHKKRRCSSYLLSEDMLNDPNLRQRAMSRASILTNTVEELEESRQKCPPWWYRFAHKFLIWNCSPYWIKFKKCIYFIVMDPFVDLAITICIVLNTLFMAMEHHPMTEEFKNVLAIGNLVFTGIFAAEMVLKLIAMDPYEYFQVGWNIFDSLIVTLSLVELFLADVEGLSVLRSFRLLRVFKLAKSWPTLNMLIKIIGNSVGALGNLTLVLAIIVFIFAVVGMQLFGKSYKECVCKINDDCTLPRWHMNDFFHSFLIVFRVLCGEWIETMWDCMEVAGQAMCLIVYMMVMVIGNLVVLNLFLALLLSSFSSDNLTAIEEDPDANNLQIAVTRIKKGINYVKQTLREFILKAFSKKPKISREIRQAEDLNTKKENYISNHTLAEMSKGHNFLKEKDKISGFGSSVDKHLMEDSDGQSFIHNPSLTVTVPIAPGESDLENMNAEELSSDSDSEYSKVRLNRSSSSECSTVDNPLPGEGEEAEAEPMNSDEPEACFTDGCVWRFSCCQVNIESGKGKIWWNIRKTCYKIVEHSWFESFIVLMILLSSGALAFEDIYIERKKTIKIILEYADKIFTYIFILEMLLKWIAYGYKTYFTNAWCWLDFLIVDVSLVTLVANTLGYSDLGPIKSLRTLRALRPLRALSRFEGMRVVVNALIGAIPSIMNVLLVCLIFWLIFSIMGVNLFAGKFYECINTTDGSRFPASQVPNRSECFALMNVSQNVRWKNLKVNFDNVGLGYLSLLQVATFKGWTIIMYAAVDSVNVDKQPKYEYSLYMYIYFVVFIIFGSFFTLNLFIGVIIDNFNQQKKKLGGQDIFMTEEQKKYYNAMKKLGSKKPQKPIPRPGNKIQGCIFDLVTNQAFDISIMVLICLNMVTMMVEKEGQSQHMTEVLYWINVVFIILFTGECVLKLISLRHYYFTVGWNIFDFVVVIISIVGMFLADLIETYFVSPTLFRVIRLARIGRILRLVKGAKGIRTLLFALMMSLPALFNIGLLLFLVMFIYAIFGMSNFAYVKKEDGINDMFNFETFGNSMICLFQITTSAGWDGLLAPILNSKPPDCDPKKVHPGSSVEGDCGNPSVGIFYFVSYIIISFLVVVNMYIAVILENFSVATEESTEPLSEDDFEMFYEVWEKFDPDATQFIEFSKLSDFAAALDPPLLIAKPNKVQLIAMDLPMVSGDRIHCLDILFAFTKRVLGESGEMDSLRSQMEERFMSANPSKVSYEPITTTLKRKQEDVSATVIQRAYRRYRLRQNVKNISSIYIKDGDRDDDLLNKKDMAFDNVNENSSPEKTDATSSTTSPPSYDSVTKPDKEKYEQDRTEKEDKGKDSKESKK
row,SMILES,Ki
1,"COc1ncc(-c2ccccc2C2CCCN(C(=O)c3ccc(OCC(F)(F)F)cc3)C2)cn1 (stereo not drawn) [Compound 6, (3-(2-(2-methoxypyrimidin-5-yl)phenyl)piperidin-1-yl)(4-(2,2,2-trifluoroethoxy)phenyl) methanone]",511 ± 100 nM
2,"COc1ncc(-c2ccccc2C2CCCN(C(=O)c3ccc(OCC(F)(F)F)nc3)C2)cn1 (stereo not drawn) [Compound 13, (3-(2-(2-methoxypyrimidin-5-yl)phenyl)piperidin-1-yl)(6-(2,2,2-trifluoroethoxy)pyridin-3-yl)methanone]",2100 ± 384 nM

# Same assay, conditions: resting block dissociation constant; read-out: Nav1.7 Activity EP assay Kr
row,SMILES,Kd
1,"COc1ncc(-c2ccccc2C2CCCN(C(=O)c3ccc(OCC(F)(F)F)cc3)C2)cn1 (stereo not drawn) [Compound 6, (3-(2-(2-methoxypyrimidin-5-yl)phenyl)piperidin-1-yl)(4-(2,2,2-trifluoroethoxy)phenyl) methanone]",97.9 ± 9.3 µM
2,"COc1ncc(-c2ccccc2C2CCCN(C(=O)c3ccc(OCC(F)(F)F)nc3)C2)cn1 (stereo not drawn) [Compound 13, (3-(2-(2-methoxypyrimidin-5-yl)phenyl)piperidin-1-yl)(6-(2,2,2-trifluoroethoxy)pyridin-3-yl)methanone]",115 ± 22.3 µM

# Target: human Nav1.7 (Homo sapiens (Human), UniProt Q15858)
# Test: FLIPR sodium dye assay with KCl and test article pre-incubation, recombinant Nav1.7/HEK293 cells
# Assay type: cell-based
# Settings: Nav1.7, FLIPR assay
# human Nav1.7, sequence (Q15858 other isoform, or with tags, fused parts or gaps): as above
row,SMILES,IC50
1,"COc1ncc(-c2ccccc2C2CCCN(C(=O)c3ccc(OCC(F)(F)F)cc3)C2)cn1 (stereo not drawn) [Compound 6, (3-(2-(2-methoxypyrimidin-5-yl)phenyl)piperidin-1-yl)(4-(2,2,2-trifluoroethoxy)phenyl) methanone]",209 ± 16 nM
2,"O=C(c1ccc(OCC(F)(F)F)nc1)N1CCCC(c2ccccc2O)C1 (stereo not drawn) [Compound 7, (3-(2-hydroxyphenyl)piperidin-1-yl)(6-(2,2,2-trifluoroethoxy)pyridin-3-yl)methanone]",2570 ± 62 nM
3,"O=C(c1ccc(OCC(F)(F)F)nc1)N1CCCC(c2ccccc2)C1 (stereo not drawn) [Compound 10, (3-phenylpiperidin-1-yl)(6-(2,2,2-trifluoroethoxy)pyridin-3-yl)methanone]",1600 ± 105 nM
4,"COc1ncc(-c2ccccc2C2CCCN(C(=O)c3ccc(OCC(F)(F)F)nc3)C2)cn1 (stereo not drawn) [Compound 13, (3-(2-(2-methoxypyrimidin-5-yl)phenyl)piperidin-1-yl)(6-(2,2,2-trifluoroethoxy)pyridin-3-yl)methanone]",873 ± 27 nM
5,"O=C(c1ccc(OCC(F)(F)F)nc1)N1CCCC(c2ccccc2-c2ccc(F)nc2)C1 (stereo not drawn) [Compound 15, (3-(2-(6-fluoropyridin-3-yl)phenyl)piperidin-1-yl)(6-(2,2,2-trifluoroethoxy)pyridin-3-yl)methanone]",954 ± 153 nM
6,"CSc1ncc(-c2ccccc2C2CCCN(C(=O)c3ccc(OCC(F)(F)F)nc3)C2)cn1 (stereo not drawn) [Compound 16, (3-(2-(2-(methylthio)pyrimidin-5-yl)phenyl)piperidin-1-yl)(6-(2,2,2-trifluoroethoxy)pyridin-3-yl)methanone]",676 ± 39 nM
7,"COc1ncccc1-c1ccccc1C1CCCN(C(=O)c2ccc(OCC(F)(F)F)nc2)C1 (stereo not drawn) [Compound 17, (3-(2-(2-methoxypyridin-3-yl)phenyl)piperidin-1-yl)(6-(2,2,2-trifluoroethoxy)pyridin-3-yl)methanone]",691 ± 60 nM
8,"CN(C)c1ncc(-c2ccccc2C2CCCN(C(=O)c3ccc(OCC(F)(F)F)nc3)C2)cn1 (stereo not drawn) [Compound 18, (3-(2-(2-(dimethylamino)pyrimidin-5-yl)phenyl)piperidin-1-yl)(6-(2,2,2-trifluoroethoxy)pyridin-3-yl)methanone]",558 ± 31 nM
9,"O=C(c1ccc(OCC(F)(F)F)nc1)N1CCCC(c2ccccc2-c2ccc(O)nc2)C1 (stereo not drawn) [Compound 19, (3-(2-(6-hydroxypyridin-3-yl)phenyl)piperidin-1-yl)(6-(2,2,2-trifluoroethoxy)pyridin-3-yl)methanone]",5470 ± 220 nM
10,"COc1ncc(-c2ccccc2C2CCCN(C(=O)c3cccnc3N)C2)cn1 (stereo not drawn) [Compound 28, (2-aminopyridin-3-yl)(3-(2-(2-methoxypyrimidin-5-yl)phenyl)piperidin-1-yl)methanone]",2570 ± 574 nM
11,"CN(C)c1ncc(-c2ccccc2C2CCCN(C(=S)Nc3ccc(C(F)(F)F)cc3)C2)cn1 (stereo not drawn) [Compound 29, 3-(2-(2-(dimethylamino)pyrimidin-5-yl)phenyl)-N-(4-(trifluoromethyl)phenyl)piperidine-1-carbothioamide]",> 20000 nM
12,"COc1ccc(NC(=S)N2CCCC(c3ccccc3-c3cnc(N(C)C)nc3)C2)cc1 (stereo not drawn) [Compound 30, 3-(2-(2-(dimethylamino)pyrimidin-5-yl)phenyl)-N-(4-methoxyphenyl)piperidine-1-carbothioamide]",2520 ± 753 nM
13,"CN(C)c1ncc(-c2ccccc2C2CCCN(C(=O)Nc3ccc(OC(F)(F)F)cc3)C2)cn1 (stereo not drawn) [Compound 31, 3-(2-(2-(dimethylamino)pyrimidin-5-yl)phenyl)-N-(4-(trifluoromethoxy)phenyl)piperidine-1-carboxamide]",941 ± 132 nM
14,"COc1ccc(S(=O)(=O)N2CCCC(c3ccccc3-c3cnc(N(C)C)nc3)C2)cc1 (stereo not drawn) [Compound 32, 5-(2-(1-((4-methoxyphenyl)sulfonyl)piperidin-3-yl)phenyl)-N,N-dimethylpyrimidin-2-amine]",672 ± 118 nM
15,"CN(C)c1ncc(-c2ccccc2C2CCCN(S(=O)(=O)c3ccc(OC(F)(F)F)cc3)C2)cn1 (stereo not drawn) [Compound 33, N,N-dimethyl-5-(2-(1-((4-(trifluoromethoxy)phenyl)sulfonyl)piperidin-3-yl)phenyl)pyrimidin-2-amine]",376 ± 29 nM
16,"COc1ccc(C(=O)N2CCCC(c3ccccc3-c3cnc(N(C)C)nc3)C2)cc1[C@@H](O)CO (stereo partly drawn) [Compound 34, (3-((R)-1,2-dihydroxyethyl)-4-methoxyphenyl)(3-(2-(2-(dimethylamino)pyrimidin-5-yl)phenyl)piperidin-1-yl)methanone]",> 20000 nM
17,"COc1ccc(C(=O)N2CCCC(c3ccccc3-c3cnc(N(C)C)nc3)C2)cc1[C@H](O)CO (stereo partly drawn) [Compound 35, (3-((S)-1,2-dihydroxyethyl)-4-methoxyphenyl)(3-(2-(2-(dimethylamino)pyrimidin-5-yl)phenyl)piperidin-1-yl)methanone]",10000 to 20000 nM
18,"COc1ccc(C(=O)N2CCCC(c3ccccc3-c3cnc(N(C)C)nc3)C2)cc1 (stereo not drawn) [Compound 36, (3-(2-(2-(dimethylamino)pyrimidin-5-yl)phenyl)piperidin-1-yl)(4-methoxyphenyl)methanone]",384 ± 80 nM
19,"CN(C)c1ncc(-c2ccccc2C2CCCN(C(=O)c3cccc(C(N)=O)c3)C2)cn1 (stereo not drawn) [Compound 37, 3-(3-(2-(2-(dimethylamino)-pyrimidin-5-yl)phenyl)piperidine-1-carbonyl) benzamide]",> 20000 nM
20,"CN(C)c1ncc(-c2ccccc2C2CCCN(C(=O)c3ccc(C(N)=O)cc3)C2)cn1 (stereo not drawn) [Compound 38, 4-(3-(2-(2-(dimethylamino)-pyrimidin-5-yl)phenyl)piperidine-1-carbonyl) benzamide]",> 20000 nM
21,"CN(C)c1ncc(-c2ccccc2C2CCCN(C(=O)c3ccc(OC(F)(F)F)cc3)C2)cn1 (stereo not drawn) [Compound 39, (3-(2-(2-(dimethylamino)pyrimidin-5-yl)phenyl)piperidin-1-yl)(4-(tri-fluoromethoxy)phenyl)methanone]",689 ± 35 nM
22,"CN(C)c1ncc(-c2ccccc2C2CCCN(C(=O)c3ccc(OCC(F)(F)F)cc3)C2)cn1 (stereo not drawn) [Compound 40, (3-(2-(2-(dimethylamino)pyrimidin-5-yl)phenyl)piperidin-1-yl)(4-(2,2,2-trifluoroethoxy)phenyl)methanone]",96 ± 6 nM
23,"CN(C)c1ncc(-c2ccccc2C2CCCN(S(=O)(=O)Nc3ncns3)C2)cn1 (stereo not drawn) [Compound 43, 3-(2-(2-(dimethylamino)pyrimidin-5-yl)phenyl)-N-(1,2,4-thiadiazol-5-yl)piperidine-1-sulfonamide]",> 20000 nM
